Measurements taken from ChEMBL document CHEMBL1201862, “PubChem BioAssay data set” (2004).
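Exposure lasted 48 hours, with cells grown in 96-well plates and compounds tested at five concentrations. At the GI50, growth is halved.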 Calls of active or inactive are those of the source. Rule as the data show it: active = GI50 up to about 1.1 µM and inactive = higher.

What was measured:
Experiment in all cases: DTP human tumour cell line panel, 48 h
HCC 2998 = system: HCC 2998
UACC-62 = system: UACC-62
T47D = system: T47D
NCI-H460 = system: NCI-H460
LOX IMVI = system: LOX IMVI
Hs-578T = system: Hs-578T
SF-539 = system: SF-539
MCF7 = system: MCF7
MDA-MB-231 = system: MDA-MB-231
HT-29 = system: HT-29
UACC-257 = system: UACC-257
CCRF-CEM = system: CCRF-CEM
KM12 = system: KM12
SK-MEL-2 = system: SK-MEL-2
UO-31 = system: UO-31
NCI/ADR-RES = system: NCI/ADR-RES
786-0 = system: 786-0
OVCAR-3 = system: OVCAR-3
SR = system: SR
SF-268 = system: SF-268
Malme-3M = system: Malme-3M
A549 = system: A549
SF-295 = system: SF-295
TK-10 = system: TK-10
SNB-19 = system: SNB-19
MDA-MB-435 = system: MDA-MB-435
A498 = system: A498
RXF 393 = system: RXF 393
HOP-62 = system: HOP-62
M14 = system: M14
K562 = system: K562
NCI-H226 = system: NCI-H226
ACHN = system: ACHN
CAKI-1 = system: CAKI-1
NCI-H23 = system: NCI-H23
MOLT-4 = system: MOLT-4
SK-OV-3 = system: SK-OV-3
PC-3 = system: PC-3
U-251 = system: U-251
DU-145 = system: DU-145
OVCAR-8 = system: OVCAR-8
IGROV-1 = system: IGROV-1
SNB-75 = system: SNB-75
RPMI-8226 = system: RPMI-8226
SK-MEL-28 = system: SK-MEL-28
MDA-N = system: MDA-N
EKVX = system: EKVX
SW-620 = system: SW-620
HCT-15 = system: HCT-15
HL-60 = system: HL-60
HCT-116 = system: HCT-116
SN12C = system: SN12C
NCI-H522 = system: NCI-H522
COLO 205 = system: COLO 205
SK-MEL-5 = system: SK-MEL-5
OVCAR-4 = system: OVCAR-4

Measured: GI50

C[N+]1(C)CC=C(N2CCOCC2)CC1
inactive: HCC 2998 > 10 µM | UACC-62 > 10 µM | T47D > 10 µM | NCI-H460 > 10 µM | LOX IMVI > 10 µM | Hs-578T > 10 µM | SF-539 > 10 µM | MCF7 > 10 µM | MDA-MB-231 > 10 µM | HT-29 > 10 µM | UACC-257 > 10 µM | CCRF-CEM > 10 µM | KM12 > 10 µM | SK-MEL-2 > 10 µM | UO-31 > 10 µM | NCI/ADR-RES > 10 µM | 786-0 > 10 µM | OVCAR-3 > 10 µM | SR > 10 µM | SF-268 > 10 µM | Malme-3M > 10 µM | A549 > 10 µM | SF-295 > 10 µM | TK-10 > 10 µM | SNB-19 > 10 µM | MDA-MB-435 > 10 µM | A498 > 10 µM | RXF 393 > 10 µM | HOP-62 > 10 µM | M14 > 10 µM | K562 > 10 µM | NCI-H226 > 10 µM | ACHN > 10 µM | CAKI-1 > 10 µM | NCI-H23 > 10 µM | MOLT-4 > 10 µM | SK-OV-3 > 10 µM | PC-3 > 10 µM | U-251 > 10 µM | DU-145 > 10 µM | OVCAR-8 > 10 µM | IGROV-1 > 10 µM | SNB-75 > 10 µM | RPMI-8226 > 10 µM | SK-MEL-28 > 10 µM | MDA-N > 10 µM | EKVX > 10 µM | SW-620 > 10 µM | HL-60 > 10 µM | HCT-116 > 10 µM | SN12C > 10 µM | NCI-H522 > 10 µM | COLO 205 > 10 µM | SK-MEL-5 > 10 µM | OVCAR-4 > 10 µM
> 10 µM: HCT-15
